Reference: ChEMBL document CHEMBL3734692, “Design and synthesis of 2-oxindole based multi-targeted inhibitors of PDK1/Akt signaling pathway for the treatment of glioblastoma multiforme” (Eur J Med Chem, 2015)
The source made the active and inactive calls. The rule behind the calls is not given here.

Tests used:
[1] = target: Protein kinase C delta type (Homo sapiens) (UniProt Q05655); assay: Inhibition of PKCdelta (unknown origin) at 1 uM by selectscreen kinase profiling assay in presence of ATP
[2] = target: Glycogen synthase kinase-3 alpha (Homo sapiens, UniProt P49840); assay: Inhibition of GSK3alpha (unknown origin) in presence of 10 uM ATP incubated for 1 hr by Z'Lyte assay
Glycogen synthase kinase-3 alpha, sequence (P49840 whole entry): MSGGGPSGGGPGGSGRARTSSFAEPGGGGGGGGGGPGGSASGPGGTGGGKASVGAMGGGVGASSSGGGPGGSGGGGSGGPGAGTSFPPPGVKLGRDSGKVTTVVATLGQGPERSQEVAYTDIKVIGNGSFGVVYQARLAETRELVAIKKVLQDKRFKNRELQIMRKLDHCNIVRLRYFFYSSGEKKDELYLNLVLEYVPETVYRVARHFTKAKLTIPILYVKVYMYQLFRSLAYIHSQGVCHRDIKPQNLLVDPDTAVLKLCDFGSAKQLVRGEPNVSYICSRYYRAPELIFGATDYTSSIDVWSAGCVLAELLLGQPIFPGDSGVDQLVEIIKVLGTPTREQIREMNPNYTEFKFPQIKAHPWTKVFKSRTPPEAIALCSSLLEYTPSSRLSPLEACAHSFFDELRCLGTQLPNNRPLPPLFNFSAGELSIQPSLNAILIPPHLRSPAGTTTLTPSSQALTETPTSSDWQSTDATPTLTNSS

[3] = target: CDK2/Cyclin A2 (Homo sapiens) (UniProt P24941+P20248); assay: Inhibition of CDK2/cyclin A (unknown origin) at 1 uM by selectscreen kinase profiling assay in presence of ATP; assay type: protein-complex assay
[4] = target: Serine/threonine-protein kinase MARK1 (Homo sapiens) (UniProt Q9P0L2); assay: Inhibition of MARK1 (unknown origin) at 1 uM by selectscreen kinase profiling assay in presence of ATP
Serine/threonine-protein kinase MARK1 (Homo sapiens), sequence (Q9P0L2 whole entry, looked up): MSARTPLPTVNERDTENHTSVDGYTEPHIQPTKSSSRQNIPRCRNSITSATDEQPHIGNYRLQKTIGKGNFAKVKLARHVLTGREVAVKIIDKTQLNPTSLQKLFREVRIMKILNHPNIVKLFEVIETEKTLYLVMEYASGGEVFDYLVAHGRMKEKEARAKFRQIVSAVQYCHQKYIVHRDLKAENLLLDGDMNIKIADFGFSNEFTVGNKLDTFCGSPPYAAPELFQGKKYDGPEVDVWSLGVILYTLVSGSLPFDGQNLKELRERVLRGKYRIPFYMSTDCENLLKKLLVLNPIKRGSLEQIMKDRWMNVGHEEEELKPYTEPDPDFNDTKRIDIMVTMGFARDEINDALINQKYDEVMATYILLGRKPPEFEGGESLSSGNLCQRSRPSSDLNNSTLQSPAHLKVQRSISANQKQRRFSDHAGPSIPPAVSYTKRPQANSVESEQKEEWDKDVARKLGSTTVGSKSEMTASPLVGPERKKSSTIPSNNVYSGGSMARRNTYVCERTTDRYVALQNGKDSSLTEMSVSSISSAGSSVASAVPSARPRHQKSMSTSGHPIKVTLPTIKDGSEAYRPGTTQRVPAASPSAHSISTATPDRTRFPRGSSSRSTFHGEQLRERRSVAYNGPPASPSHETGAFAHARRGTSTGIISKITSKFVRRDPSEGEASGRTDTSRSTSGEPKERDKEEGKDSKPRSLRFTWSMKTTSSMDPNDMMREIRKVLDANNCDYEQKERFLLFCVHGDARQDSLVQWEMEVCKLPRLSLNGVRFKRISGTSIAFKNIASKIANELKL

[5] = target: Dual specificity mitogen-activated protein kinase kinase 2 (Homo sapiens) (UniProt P36507); assay: Inhibition of MEK2 (unknown origin) at 1 uM by selectscreen kinase profiling assay in presence of ATP
[6] = target: T1, AMP-activated protein kinase, AMPK (Homo sapiens) (UniProt P54646+O43741+P54619+Q9UGJ0+Q9Y478+Q13131+Q9UGI9); assay: Inhibition of AMPK A2/B1/G1 (unknown origin) at 1 uM by selectscreen kinase profiling assay in presence of ATP; assay type: protein-complex assay
[7] = target: Cyclin-dependent kinase 1/cyclin B1 (Homo sapiens) (UniProt P06493+P14635); assay: Inhibition of CDK1/cyclin B (unknown origin) at 1 uM by selectscreen kinase profiling assay in presence of ATP; assay type: protein-complex assay
[8] = target: RAC-beta serine/threonine-protein kinase (Homo sapiens) (UniProt P31751); assay: Inhibition of AKT2 (unknown origin) at 1 uM by selectscreen kinase profiling assay in presence of ATP
RAC-beta serine/threonine-protein kinase (Homo sapiens), sequence (P31751 whole entry, looked up): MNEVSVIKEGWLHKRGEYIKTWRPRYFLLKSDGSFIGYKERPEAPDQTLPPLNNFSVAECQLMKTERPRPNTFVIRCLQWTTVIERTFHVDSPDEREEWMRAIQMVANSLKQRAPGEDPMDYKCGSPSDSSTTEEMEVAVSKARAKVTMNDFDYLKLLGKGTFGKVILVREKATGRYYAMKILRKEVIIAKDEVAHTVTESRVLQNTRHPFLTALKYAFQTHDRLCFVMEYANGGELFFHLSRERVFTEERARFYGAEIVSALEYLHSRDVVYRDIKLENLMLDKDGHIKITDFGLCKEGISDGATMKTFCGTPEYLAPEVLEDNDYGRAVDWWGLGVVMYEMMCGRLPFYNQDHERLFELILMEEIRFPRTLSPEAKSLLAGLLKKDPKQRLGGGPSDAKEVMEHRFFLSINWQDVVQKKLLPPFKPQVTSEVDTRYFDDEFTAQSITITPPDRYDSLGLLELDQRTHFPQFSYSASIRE

[9] = target: Tyrosine-protein kinase ABL1 (Homo sapiens) (UniProt P00519); assay: Inhibition of ABL1 (unknown origin) at 1 uM by selectscreen kinase profiling assay in presence of ATP
[10] = Induction of apoptosis in human GSC derived from ANGM-CSS cells assessed as dead cells at 1 uM after 7 days by annexin V-FITC/7-AAD dual staining based cell analysis (reference value: 2.33%); assay type: functional
[11] = Antiproliferative activity against human ANGM-CSS cells assessed as inhibition of cell growth after 72 hrs by WST1 assay; assay type: functional
[12] = target: Casein kinase I isoform gamma-1 (Homo sapiens) (UniProt Q9HCP0); assay: Inhibition of CK1gamma1 (unknown origin) at 1 uM by selectscreen kinase profiling assay in presence of ATP
Casein kinase I isoform gamma-1 (Homo sapiens), sequence (Q9HCP0 whole entry, looked up, canonical isoform): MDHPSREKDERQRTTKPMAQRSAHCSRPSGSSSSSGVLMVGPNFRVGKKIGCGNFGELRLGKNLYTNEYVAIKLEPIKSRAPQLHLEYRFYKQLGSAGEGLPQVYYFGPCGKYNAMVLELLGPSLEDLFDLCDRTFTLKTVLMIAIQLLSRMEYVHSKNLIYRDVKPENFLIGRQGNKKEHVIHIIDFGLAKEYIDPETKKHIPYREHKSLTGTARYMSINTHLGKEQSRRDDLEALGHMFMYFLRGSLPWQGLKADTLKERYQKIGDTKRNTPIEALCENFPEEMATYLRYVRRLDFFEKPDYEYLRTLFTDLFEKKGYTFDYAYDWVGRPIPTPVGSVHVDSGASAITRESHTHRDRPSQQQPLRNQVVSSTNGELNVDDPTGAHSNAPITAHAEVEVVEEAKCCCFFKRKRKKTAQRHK

[13] = target: Protein kinase C alpha type (Homo sapiens) (UniProt P17252); assay: Inhibition of PKCalpha (unknown origin) at 1 uM by selectscreen kinase profiling assay in presence of ATP
[14] = target: Casein kinase I isoform alpha (Homo sapiens) (UniProt P48729); assay: Inhibition of CK1alpha1 (unknown origin) at 1 uM by selectscreen kinase profiling assay in presence of ATP
Casein kinase I isoform alpha (Homo sapiens), sequence (P48729 2-337 limits assumed): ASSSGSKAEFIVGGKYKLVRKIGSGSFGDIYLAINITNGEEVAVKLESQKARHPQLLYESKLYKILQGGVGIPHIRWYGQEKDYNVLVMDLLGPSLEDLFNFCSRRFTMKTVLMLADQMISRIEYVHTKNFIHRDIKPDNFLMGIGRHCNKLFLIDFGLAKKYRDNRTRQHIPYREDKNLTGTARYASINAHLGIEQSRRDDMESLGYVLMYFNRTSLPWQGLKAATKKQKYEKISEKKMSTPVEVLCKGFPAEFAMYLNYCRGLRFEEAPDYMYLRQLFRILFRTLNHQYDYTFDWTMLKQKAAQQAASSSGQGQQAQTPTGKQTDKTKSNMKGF

ANGM-CSS = assay: Induction of human GSC differentiation derived from ANGM-CSS cells assessed as up regulation of olig mRNA expression at 1 uM after 7 days by RT-PCR analysis; assay type: functional, cell-based
[15] = target: Inhibitor of nuclear factor kappa-B kinase subunit beta (Homo sapiens) (UniProt O14920); assay: Inhibition of IKKbeta (unknown origin) at 1 uM by selectscreen kinase profiling assay in presence of ATP
Inhibitor of nuclear factor kappa-B kinase subunit beta (Homo sapiens), sequence (O14920 whole entry): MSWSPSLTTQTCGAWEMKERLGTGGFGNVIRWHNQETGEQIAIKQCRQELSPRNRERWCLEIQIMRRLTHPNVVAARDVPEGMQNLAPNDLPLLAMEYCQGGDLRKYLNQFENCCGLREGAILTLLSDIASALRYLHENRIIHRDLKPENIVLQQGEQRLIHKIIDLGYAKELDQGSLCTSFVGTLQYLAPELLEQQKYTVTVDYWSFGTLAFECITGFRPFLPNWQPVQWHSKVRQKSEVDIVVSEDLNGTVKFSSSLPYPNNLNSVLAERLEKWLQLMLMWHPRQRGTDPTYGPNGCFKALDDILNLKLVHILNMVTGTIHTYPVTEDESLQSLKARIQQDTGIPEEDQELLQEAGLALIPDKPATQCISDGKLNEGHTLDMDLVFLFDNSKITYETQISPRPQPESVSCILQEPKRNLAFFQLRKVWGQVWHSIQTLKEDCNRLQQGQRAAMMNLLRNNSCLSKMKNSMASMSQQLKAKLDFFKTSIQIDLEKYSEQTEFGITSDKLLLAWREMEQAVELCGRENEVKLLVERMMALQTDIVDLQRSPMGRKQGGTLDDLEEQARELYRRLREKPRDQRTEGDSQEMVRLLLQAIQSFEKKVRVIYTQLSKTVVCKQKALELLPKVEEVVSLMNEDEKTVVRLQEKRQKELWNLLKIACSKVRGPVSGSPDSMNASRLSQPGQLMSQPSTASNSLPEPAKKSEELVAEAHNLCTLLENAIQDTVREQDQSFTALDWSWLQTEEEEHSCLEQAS

[16] = Antiproliferative activity against human U118MG cells assessed as inhibition of cell growth after 120 hrs by WST1 assay; assay type: functional; conditions: U-118-MG
[17] = target: T1, AMP-activated protein kinase, AMPK (Homo sapiens); assay: Inhibition of AMPK A1/B1/G1 (unknown origin) at 1 uM by selectscreen kinase profiling assay in presence of ATP; assay type: protein-complex assay
[18] = Induction of apoptosis in human ANGM-CSS cells assessed as late apoptotic cells at 1 uM after 7 days by annexin V-FITC/7-AAD dual staining based cell analysis (reference value: 3.39%); assay type: functional
[19] = target: Protein kinase C zeta type (Homo sapiens) (UniProt Q05513); assay: Inhibition of PKCzeta (unknown origin) at 1 uM by selectscreen kinase profiling assay in presence of ATP
[20] = Cell cycle arrest in human GSC derived from ANGM-CSS cells assessed as accumulation at G2/M phase at 1 uM after 7 days by based fluorescent reagent based cell analysis (reference value: 23.5%); assay type: functional
[21] = Antiproliferative activity against human ANGM-CSS cells assessed as inhibition of cell growth after 96 hrs by WST1 assay; assay type: functional
[22] = Antiproliferative activity against human U118MG cells assessed as inhibition of cell growth after 72 hrs by WST1 assay; assay type: functional; conditions: U-118-MG
[23] = Induction of apoptosis in human ANGM-CSS cells assessed as dead cells at 1 uM after 7 days by annexin V-FITC/7-AAD dual staining based cell analysis (reference value: 2.28%); assay type: functional
[24] = target: Mitogen-activated protein kinase 8 (Homo sapiens) (UniProt P45983); assay: Inhibition of JNK1 (unknown origin) at 1 uM by selectscreen kinase profiling assay in presence of ATP
[25] = target: Serine/threonine-protein kinase mTOR (Homo sapiens) (UniProt P42345); assay: Inhibition of mTOR (unknown origin) at 1 uM by selectscreen kinase profiling assay in presence of ATP
[26] = target: Tyrosine-protein kinase Lck (Homo sapiens) (UniProt P06239); assay: Inhibition of LCK (unknown origin) at 1 uM by selectscreen kinase profiling assay in presence of ATP
Tyrosine-protein kinase Lck (Homo sapiens), sequence (P06239 2-509 limits assumed): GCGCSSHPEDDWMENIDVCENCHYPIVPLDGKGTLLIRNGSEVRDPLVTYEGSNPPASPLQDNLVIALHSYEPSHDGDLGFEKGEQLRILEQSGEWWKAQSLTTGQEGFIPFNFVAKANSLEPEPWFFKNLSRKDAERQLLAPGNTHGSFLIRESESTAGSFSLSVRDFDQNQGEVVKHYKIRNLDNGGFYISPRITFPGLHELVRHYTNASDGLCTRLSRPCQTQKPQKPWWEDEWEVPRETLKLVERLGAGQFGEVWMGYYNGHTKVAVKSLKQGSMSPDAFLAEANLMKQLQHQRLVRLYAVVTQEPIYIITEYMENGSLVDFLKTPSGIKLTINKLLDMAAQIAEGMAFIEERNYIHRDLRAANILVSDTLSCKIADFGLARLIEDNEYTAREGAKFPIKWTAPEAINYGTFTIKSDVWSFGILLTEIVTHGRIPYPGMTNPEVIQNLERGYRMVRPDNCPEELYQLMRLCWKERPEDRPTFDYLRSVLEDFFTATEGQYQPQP

[27] = target: cAMP-dependent protein kinase catalytic subunit alpha (Homo sapiens) (UniProt P17612); assay: Inhibition of PRKACA (unknown origin) at 1 uM by selectscreen kinase profiling assay in presence of ATP
[28] = target: Serine/threonine-protein kinase Chk2 (Homo sapiens) (UniProt O96017); assay: Inhibition of CHEK2 (unknown origin) at 1 uM by selectscreen kinase profiling assay in presence of ATP
Serine/threonine-protein kinase Chk2 (Homo sapiens), sequence (O96017 whole entry): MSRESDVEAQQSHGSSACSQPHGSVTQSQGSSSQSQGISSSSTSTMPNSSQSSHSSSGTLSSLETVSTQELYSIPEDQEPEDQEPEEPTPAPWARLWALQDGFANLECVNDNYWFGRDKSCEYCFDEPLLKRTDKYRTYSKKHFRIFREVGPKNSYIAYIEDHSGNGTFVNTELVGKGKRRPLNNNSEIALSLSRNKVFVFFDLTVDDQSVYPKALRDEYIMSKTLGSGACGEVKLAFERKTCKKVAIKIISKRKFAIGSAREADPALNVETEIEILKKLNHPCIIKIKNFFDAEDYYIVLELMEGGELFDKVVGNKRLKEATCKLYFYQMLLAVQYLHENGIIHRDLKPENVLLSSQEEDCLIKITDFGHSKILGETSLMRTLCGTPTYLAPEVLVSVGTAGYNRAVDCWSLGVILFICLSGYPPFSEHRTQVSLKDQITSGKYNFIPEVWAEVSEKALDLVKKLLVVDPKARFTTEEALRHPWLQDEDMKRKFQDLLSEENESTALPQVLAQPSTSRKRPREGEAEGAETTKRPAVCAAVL

COc1cc2c(cc1OC)CN(CC(=O)Nc1ccc3c(c1)/C(=C/c1cnc[nH]1)C(=O)N3)CC2
inhibition [1]: -5% | IC50 [2]: 0.884 µM | inhibition [3]: 30% | inhibition [4]: 27% | inhibition [5]: 37% | inhibition [6]: 30% | inhibition [7]: 18% | inhibition [8]: 2% | inhibition [9]: 55% | Activity [10]: 1.1% | GI50 [11]: 7.73 µM | inhibition [12]: -4% | inhibition [13]: -2% | inhibition [14]: 4% | Activity (ANGM-CSS): Active | inhibition [15]: 6% | GI50 [16]: 16.7 µM | inhibition [17]: 42% | Activity [18]: 11.87% | inhibition [19]: 0% | Activity [20]: 27% | GI50 [21]: 7.5 µM | GI50 [22]: 14.6 µM | Activity [23]: 1.74% | inhibition [24]: 5% | inhibition [25]: -4% | inhibition [26]: 26% | inhibition [27]: 3% | inhibition [28]: 24%
